Experimental data from patent US8980224B2, “Method of cardiac imaging” (GE Healthcare AS, priority 2004, dated 2015).

Assays:
[1] = 13C polarisation obtained by the DNP method, assessed with 13C-NMR; assay type: physicochemical; conditions: 1.2 K, 3.35 T
Experimental: A 20 mM solution was prepared by dissolving 5.0 mg of the radical of Example 1 in ^13CI-pyruvic acid (164 μl). The sample was mixed to homogeneity and an aliquot of the solution (41 mg) was placed in a sample cup and inserted in the DNP polariser.
The sample was polarised under DNP conditions at 1.2 K in a 3.35 T magnetic field under irradiation with microwave (93.950 GHz). After 2 hours the polarisation was stopped and the sample was dissolved using a dissolution device according to WO-A-02/37132 in an aqueous solution of sodium hydroxide and tris(hydroxymethyl)aminomethane (TRIS) to provide a neutral solution of hyperpolarised sodium ^13C1-pyruvate. The dissolved sample was rapidly analysed with ^13C-NMR to assess the polarisation and a 19.0% ^13C polarisation was obtained.
A 15 mM solution was prepared by dissolving the radical of Example 1 (209.1 mg) in a mixture of ^13C1-pyruvic acid (553 mg) and unlabelled pyruvic acid (10.505 g). The sample was mixed to homogeneity and an aliquot of the solution (2.015 g) was placed in a sample cup and inserted in the DNP polariser.
The sample was polarised under DNP conditions at 1.2 K in a 3.35 T magnetic field under irradiation with microwave (93.950 GHz). […] The filtered solution was rapidly analysed with ^13C-NMR to assess the polarisation, 16.5% ^13C polarisation was obtained. The residual radical concentration was subsequently analysed with a UV spectrophotometer meter at 469 nm and was determined to be below the detection limit of 0.1 μM.
A 20 mM solution was prepared by dissolving Tris(8-carboxy-2,2,6,6-tetra(hydroxyethoxy)methyl-benzo[1,2-d:4,5-d′]-bis-(1,3)-dithiole-4-yl)methyl sodium salt in ^13C1-pyruvic acid (83.1 mg). […] The DNP enhancement was calculated from a measurement of the thermal equilibrium ^13C-NMR signal and the enhanced NMR signal. […]

[2] = T1 relaxation of 13C-pyruvate in human full blood; assay type: physicochemical; conditions: human full blood at 37° C.
Excerpt: The amount of alanine, bicarbonate and lactate is dependent on the metabolic status of the myocardial tissue under investigation.

myocardial tissue = assay: Cardiac 13C-MR imaging in the pig before and after occlusion of the circumflexa; assay type: in vivo; conditions: 0.22 mmol/kg i.v., imaging 30 s after start of injection
Experimental: The pig (25 kg) was anaesthetised using a cocktail containing isotonic NaCl (26 vol %), Ketalar (50 mg/ml) (Pfizer AB) (42 vol %), Norcuron (10 mg+5 ml sterile water) (Organon) (21 vol %) and Midazolam (5 mg/ml) (Pharma Hameln) (11% vol) administered using an infusion pump at a rate of 0.6 ml/min.
After the first injection with ^13C-pyruvate the pig was removed from the MR scanner. Under X-ray guidance, a balloon catheter was inserted into the arteria coronaria sinistra and the circumflexa was blocked for a 15 minute period. During the whole operation ECG and blood pressure were measured. 90 Minutes after the end of the ischemic period, the pig was imaged again and ^13C-images were acquired from (about) the same location as were the control measurement was carried out.
The pig was positioned in a pig MR coil (Rapid Biomedical, Germany) and imaged using a standard clinical cardiac proton MR imaging sequence library to get anatomical information and to get the short axis view orientation of the myocardium (see proton reference image in the figures to see an example of short axis view).
Based on the proton frequency found by the MR system the MR frequency for ^13C1-alanine was calculated according to the following equation: Frequency ^13C1-alanine=0.25144×[(system frequency proton×1.00021)−0.000397708]
The frequency calculated positioned the MR signal arising from ^13C1-alanine on resonance with ^13C1-lactate on the left and ^13C1-pyruvate and ^13C1-bicarbonate resonating on the right of ^13C1-alanine. An unlocalised MR spectroscopy sequence was run to ensure that the ^13C-MR coil and the system MR frequency had been set up correctly. The ^13C-image location was positioned to cover the myocardium (short axis view) (slice thickness 20 mm, in plane pixel size 7.5×7.5 mm^2). In the reconstruction phase, the image data was zero-filled to result in 3.75×3.75×20 mm^3 resolution. 16 ml of ^13C1-pyruvate (327 mM) was injected (0.22 mmol/kg) during a period of 12 s (1.3 ml/s) i.v. into the front leg and 30 s after the start of the injection (i.e. 18 s after finishing the injection), the chemical shift ^13C-MR sequence was started.
In the reconstruction phase, the matrix was zero-filled to 32×32, a mathematical operation that helps to improve the spatial resolution. The dataset was analysed on the MRI scanner with software provided by the manufacturer. The results are metabolic images for ^13C-pyruvate, ^13C-alanine, ^13C-lactate and ^13C-bicarbonate.

[3] = 90 minutes after 15 minute occlusion of the circumflexa
[4] = before vs 90 minutes after 15 minute occlusion

SMILES | 13C polarisation ([1]; Example 4: 20 mM tris(8-carboxy-2,2,6,6-tetra(hydroxyethoxy)methyl-benzo-bis-dithiole-4-yl)methyl sodium salt, calculated from thermal equilibrium and enhanced NMR signal) [%] | T1 relaxation [2] | 13C polarisation ([1]; Example 2: 20 mM radical of Example 1 in 13C1-pyruvic acid, 93.950 GHz, 2 hours, dissolved in NaOH/TRIS, liquid 13C-NMR) [%] | 13C polarisation ([1]; Example 3: 15 mM radical of Example 1, 4 hours, dissolved in NaOH/TRIS, 0.5 M pyruvate, radical removed on C18 column, filtered solution) [%] | 13C-bicarbonate signal in myocardial tissue at risk (compared to the control) (myocardial tissue; [3]) | 13C-lactate signal in myocardial tissue at risk (myocardial tissue; [3]) | 13C-alanine image before and after the ischemic period (myocardial tissue; [4]) | 13C-pyruvate image before and after the ischemic period (myocardial tissue; [4])
CC(=O)[13C](=O)O [^13C1-pyruvic acid] | 16 |  |  |  |  |  |  | 
CC(=O)C(=O)O [^13C-pyruvate, sodium ^13C1-pyruvate] |  | about 42 s | 19.0 | 16.5 | strongly reduced | positive contrast | No difference | No difference
